Measured values from US9206184B2, “Disubstituted benzothienyl-pyrrolotriazines and uses thereof” (BAYER INTELLECTUAL PROPERTY GmbH, priority 2011, dated 2015).

How the values were obtained:
[1] = biological target: human FGFR-3 (Homo sapiens (Human), UniProt P22607); test: FGFR-3 kinase assay (TR-FRET); format: biochemical; details: 10 μM ATP; 15 min pre-incubation with enzyme; compounds of the invention
[2] = biological target: human FGFR-1 (Homo sapiens, UniProt P11362); test: FGFR-1 high ATP kinase assay (TR-FRET); format: biochemical; details: 2 mM ATP; 15 min pre-incubation with enzyme; compounds of the invention
human FGFR-1, sequence (P11362 22-822 limits assumed): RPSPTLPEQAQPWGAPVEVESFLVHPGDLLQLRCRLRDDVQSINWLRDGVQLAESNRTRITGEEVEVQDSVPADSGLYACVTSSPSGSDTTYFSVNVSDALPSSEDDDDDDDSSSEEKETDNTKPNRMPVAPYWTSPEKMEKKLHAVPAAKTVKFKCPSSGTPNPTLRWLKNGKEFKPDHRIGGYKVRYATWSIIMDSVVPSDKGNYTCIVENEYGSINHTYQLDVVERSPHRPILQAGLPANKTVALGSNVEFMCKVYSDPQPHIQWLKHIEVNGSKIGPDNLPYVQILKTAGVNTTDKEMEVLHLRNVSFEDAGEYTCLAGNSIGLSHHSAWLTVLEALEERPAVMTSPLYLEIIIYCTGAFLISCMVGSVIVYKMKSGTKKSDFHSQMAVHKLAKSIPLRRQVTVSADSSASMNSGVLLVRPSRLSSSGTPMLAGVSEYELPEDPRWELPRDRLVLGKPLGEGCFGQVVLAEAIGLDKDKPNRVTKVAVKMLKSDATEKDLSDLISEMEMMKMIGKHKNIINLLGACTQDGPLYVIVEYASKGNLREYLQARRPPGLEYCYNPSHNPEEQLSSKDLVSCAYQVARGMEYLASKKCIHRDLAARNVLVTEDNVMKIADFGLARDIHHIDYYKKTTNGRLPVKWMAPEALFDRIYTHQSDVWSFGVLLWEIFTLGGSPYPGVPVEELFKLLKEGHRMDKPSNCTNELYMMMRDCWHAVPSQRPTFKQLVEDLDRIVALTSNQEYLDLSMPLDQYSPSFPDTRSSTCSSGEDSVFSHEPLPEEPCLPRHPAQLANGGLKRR

human FGFR-3, sequence (P22607 397-806): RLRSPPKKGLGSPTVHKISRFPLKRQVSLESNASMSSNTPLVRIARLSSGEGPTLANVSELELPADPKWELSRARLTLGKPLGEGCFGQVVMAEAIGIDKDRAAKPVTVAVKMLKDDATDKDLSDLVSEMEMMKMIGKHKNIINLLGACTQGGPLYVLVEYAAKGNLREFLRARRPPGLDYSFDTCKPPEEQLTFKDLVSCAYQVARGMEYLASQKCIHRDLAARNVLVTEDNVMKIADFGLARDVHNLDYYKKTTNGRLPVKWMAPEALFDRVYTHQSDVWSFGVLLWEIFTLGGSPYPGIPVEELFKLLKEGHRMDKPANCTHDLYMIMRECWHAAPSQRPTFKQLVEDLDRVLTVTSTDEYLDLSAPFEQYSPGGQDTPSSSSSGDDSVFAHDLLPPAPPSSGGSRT

COC(=O)c1c(-c2cc3cc(C)cc(OC)c3s2)c2c(N)ncnn2c1C(=O)N1CCNCC1 [Example 60, Methyl 4-amino-5-(7-methoxy-5-methyl-1-benzothiophen-2-yl)-7-(piperazin-1-ylcarbonyl)pyrrolo-[2,1-f][1,2,4]triazine-6-carboxylate bis(formiate)]
IC50 [1]: 77.9 nM | IC50 [2]: 16.2 nM

COc1cc(C)cc2cc(-c3c(CNC(C)=O)c(CN4CCN(C=O)CC4)n4ncnc(N)c34)sc12 [Example 65, N-({4-Amino-7-[(4-formylpiperazin-1-yl)methyl]-5-(7-methoxy-5-methyl-1-benzothiophen-2-yl)pyrrolo[2,1-f][1,2,4]triazin-6-yl}methyl)acetamide formiate]
IC50 [1]: 3.1 nM | IC50 [2]: 5.6 nM

COc1cc(C)cc2cc(-c3c(CNC(C)=O)c(CN4CCN(C(C)=O)CC4)n4ncnc(N)c34)sc12 [Example 66, N-({7-[(4-Acetylpiperazin-1-yl)methyl]-4-amino-5-(7-methoxy-5-methyl-1-benzothiophen-2-yl)pyrrolo[2,1-f][1,2,4]triazin-6-yl}methyl)acetamide]
IC50 [1]: 3.7 nM | IC50 [2]: 1.6 nM

COc1cc(C)cc2cc(-c3c(CNC(C)=O)c(CN4CCNC(=O)C4)n4ncnc(N)c34)sc12 [Example 67, N-({4-Amino-5-(7-methoxy-5-methyl-1-benzothiophen-2-yl)-7-[(3-oxopiperazin-1-yl)methyl]-pyrrolo[2,1-f][1,2,4]triazin-6-yl}methyl)acetamide]
IC50 [1]: 9.4 nM | IC50 [2]: 5 nM

COc1cc(C)cc2cc(-c3c(CO)c(C#N)n4ncnc(N)c34)sc12 [Example 68, 4-Amino-6-(hydroxymethyl)-5-(7-methoxy-5-methyl-1-benzothiophen-2-yl)pyrrolo[2,1-f][1,2,4]-triazine-7-carbonitrile]
IC50 [1]: 42.7 nM | IC50 [2]: 27 nM

COc1cc(C)cc2cc(-c3c(CO)c(C(C)(C)O)n4ncnc(N)c34)sc12 [Example 73, 2-[4-Amino-6-(hydroxymethyl)-5-(7-methoxy-5-methyl-1-benzothiophen-2-yl)pyrrolo[2,1-f]-[1,2,4]triazin-7-yl]propan-2-ol]
IC50 [1]: 12.2 nM | IC50 [2]: 4.4 nM

COc1cc(C)cc2cc(-c3c(CN4CCNC(=O)C4)c(C(C)(C)O)n4ncnc(N)c34)sc12 [Example 74, 4-{[4-Amino-7-(2-hydroxypropan-2-yl)-5-(7-methoxy-5-methyl-1-benzothiophen-2-yl)pyrrolo-[2,1-f][1,2,4]triazin-6-yl]methyl}piperazin-2-one]
IC50 [1]: 1.4 nM | IC50 [2]: 4 nM

COc1cc(C)cc2cc(-c3c(CO)c(C)n4ncnc(N)c34)sc12 [Example 75, [4-Amino-5-(7-methoxy-5-methyl-1-benzothiophen-2-yl)-7-methylpyrrolo[2,1-f][1,2,4]triazin-6-yl]methanol]
IC50 [1]: 19.8 nM | IC50 [2]: 4.1 nM

COc1cc(C)cc2cc(-c3c(CN4CCNC(=O)C4)c(C)n4ncnc(N)c34)sc12 [Example 76, 4-{[4-Amino-5-(7-methoxy-5-methyl-1-benzothiophen-2-yl)-7-methylpyrrolo[2,1-f][1,2,4]triazin-6-yl]methyl}piperazin-2-one]
IC50 [1]: 1.4 nM | IC50 [2]: 2.8 nM

COc1cc(C)cc2cc(-c3c(CNCC(C)(C)O)c(C)n4ncnc(N)c34)sc12 [Example 77, 1-({[4-Amino-5-(7-methoxy-5-methyl-1-benzothiophen-2-yl)-7-methylpyrrolo[2,1-f][1,2,4]triazin-6-yl]methyl}amino)-2-methylpropan-2-ol formiate]
IC50 [1]: 3.8 nM | IC50 [2]: 1.4 nM

COc1cc(C)cc2cc(-c3c(CNCC(C)(C)O)c(C)n4ncnc(N)c34)sc12 [Example 78, 1-({[4-Amino-5-(7-methoxy-5-methyl-1-benzothiophen-2-yl)-7-methylpyrrolo[2,1-f][1,2,4]triazin-6-yl]methyl}amino)-2-methylpropan-2-ol]
IC50 [1]: 2 nM | IC50 [2]: 1.7 nM
